The values below come from patent publication US6858430B1, “Process for cultivation of algae” (Council of Scientific and Industrial Research, priority 2000, dated 2005).

In this assay the test system is pigmented filamentous callus of Eucheuma. In words: Enhancement of somatic embryogenesis and micro-propagule production in embedded pigmented callus cultures by plant growth regulators. It counts as cell-based, Eucheuma striatum (=Kappaphycus alvarezii). As to conditions: 23° C., one month. The source says:
The production of micro-propagules clonally through somatic embryogenesis of pigmented callus has been established. The somatic embryogenesis and micro-propagule production may further be enhanced by subculturing thin section of pigmented filamentous callus blocks (2 mm×3 mm×2 mm) in 3 mm thick agar plates (0.3-0.6% agar) with PES medium as embedded cultures. The callus blocks implanted in an agar medium grew rapidly in one month and formed colored spots in an agar with abundantly growing branched filamentous pigmented callus. The newly regenerated filamentous callus from blocks eventually transformed to produce densely pigmented (dark brown colour) micro-colonies similar to somatic embryos in branches of some filaments. […] Transfer of such filamentous callus with somatic embryos from solid (agar plates) medium to liquid PES medium facilitated rapid growth and morphogenesis in micro-propagules.
The production of micro-propagules clonally through somatic embryogenesis of pigmented callus of Eucheuma has been carried out. The somatic embryogenesis and micro-propagule production may be enhanced by subculturing thin section of pigmented filamentous callus blocks (2 mm×3 mm×2 mm) in 3 mm thick agar plates (0.4% agar) with PES medium as embedded cultures at 23° C. under cool white fluorescent fights at 50 μmol photon m^−2s^−1 irradiance with a 12:12 light and dark cycle. […]

Take naphthalenacetic acid: the “production of micro-propagules / formation of somatic embryos in pigmented filamentous callus” value (0.1, 1.0 mg l-1 naphthalenacetic acid alone in 0.4% agar PES medium) is listed as “further enhanced”.

As to `c1ccc(CNc2ncnc3nc[nH]c23)cc1` [6-benzylaminopurine], the “production of micro-propagules / formation of somatic embryos in pigmented filamentous callus” value (0.1 mg l-1 each of naphthalenacetic acid and 6-benzylaminopurine combined in 0.4% agar PES medium) is listed as “further enhanced”.
